Tests used:
Assay type in all cases: cell-based, human
TNF-alpha = TNF-alpha production by PBMC from patients with rheumatoid arthritis, CBA
Method: (§1) CBA protocol was followed according to the manufacturer's instructions. The election of microparticles was performed following the summary of FIG. 1.
(§2) The acquisition on samples was performed with the BD FACS Array Bioanalyser System (FACSArray, Becton Dickinson, San José, Calif., USA) and the analysis of the results was completed with the software FCAP Array (Becton Dickinson) in a PC computer.
Briefly, the experimental protocol consisted of a plate pre-washing out with Wash Buffer. After decantation, the mixture of capture microparticles was re-suspended in the vortex. Standards and samples were added in the adequate dilution. […]
In another experiment, PBMC (5×10^4 cells per well) from 7 patients with rheumatoid arthritis were cultured in duplicate in 200 μl of complete medium supplemented with the highest solvent (10^−6 M), and 10^−6 M, 10^−7 M and 10^−8 M compound 12 and in the presence and absence of either LPS (10 μg/ml), or anti-CD3 (12.5 ng/ml) (Orthoclone OKT3, Orthopharmaceutical Corporation, Raritan N.J., USA)+anti-CD28 (⅓×10^5) (Clon 15E8, Menarini, Madrid, Spain), during 24 hours. Culture supernatants were frozen at −20° C. and the concentration of TNF-alpha quantified by BD FACS Array Bioanalyser by using CBA Flex Set (Becton Dickinson), specific for determining the concentration of that cytokine, following the manufacturer instructions.

CD62L in lymphocytes = assay: Shedding of CD62L in lymphocytes of PBMC, flow cytometry; conditions: healthy volunteers; 10^−6 M; p<0.05; FIG. 12a
Method: Direct immuno-fluorescence techniques of one colour with monoclonal antibodies phycoerythrin-labeled (PE) was used. PE is a fluorescent substance excitable with a 488 nm laser, which emits at 570 nm, and it is detectable and easily distinguishable by a flow cytometer. By using the antibody described in Table 1, a direct labelling was performed:
PBMC labelling: the process consisted in a labelling using 96 well V bottom plates. In each well, 5×10^4 cells are located, and afterwards centrifugated at 400×g during 5 minutes. After washing-out, cells are re-suspended and 5 μl of the corresponding monoclonal antibody are added. Cells are again re-suspended and the plate is incubated in darkness, during 20 minutes, at 4° C. Subsequently, 150 μl PBS are added and two wash-outs are performed. Finally, it is re-suspended in 150 μl PBS and collected in a cytometer tube, adding PBS up to a final volume of 0.3 ml.
For the counting, a FACSCalibur flow cytometer equipped with argon laser tuned at 488 nm was used in order to induce phycoerythrin fluorescence. The equipment, apart from the fluorescence channels, also provided information about the size (FSC) and cellular complexity (SSC).
As negative controls, the study cells with no labelling and other irrelevant labelled with monoclonal antibodies of equal isotypes than the ones used in the study (IgG1-FITC, PE y TC, IgG2a FITC, PE, TC), were used. […]

IL-8 [1] = assay: IL-8 production by PBMC from patients with rheumatoid arthritis, CBA
Method: as §1, §2
(§3) Briefly, the experimental protocol consisted of a plate pre-washing out with Wash Buffer. After decantation, the mixture of capture microparticles was re-suspended in the vortex. Standards and samples were added in the adequate dilution. After permanent stirring incubation during 1 h, the PE detection reagent was added and incubated again during 2 h at room temperature. After a washing-out, the acquisition was performed in the flow cytometer.
The effect on IL-8 production by PBMC from patients with rheumatoid arthritis was also studied. […] Culture supernatants were frozen at −20° C. and IL-8 concentration was quantified by BD FACS Array Bioanalyser by using CBA Flex Set, specific to determine IL-8 concentration, following the manufacturer instructions.

IL-8 [2] = assay: IL-8 production by PBMC from healthy volunteers, CBA
Method: as §1, §2, §3
The effect of compound 12 on the IL-8 production by the PBMC from healthy volunteers was further investigated, both in the presence and absence of LPS stimuli and monoclonal antibodies anti-CD3 and anti-CD28. PBMC (5×10^4 cells/well) from 13 healthy volunteers were cultured in duplicate in 200 μl of complete medium supplemented with the highest solvent concentration (10^−6 M), and 10^−6 M, 10^−7 M and 10^−8 M of compound 12, in the presence and absence of either LPS (10 μg/ml) or anti-CD3 (12.5 ng/ml)+anti-CD28 (⅓×10^5), during 24 hours. Culture supernatants were frozen at −20° C. and IL-8 concentration was quantified by BD FACS Array Bioanalyser by using CBA Flex Set, specific to determine the IL-8 concentration, following the manufacturer instructions.

`Cc1nc(OC2CCCC2)c(-c2ccc(S(C)(=O)=O)cc2)s1` [Compound 12, 4-cyclopentyloxy-5-(4-methylsulfonyl-phenyl)-2-methyl-thiazole] was tested, and the “Effect on TNF-alpha production by PBMC, spontaneous or anti-CD3 and anti-CD28 stimulated” value (TNF-alpha) was “neither inhibited the spontaneous TNF-alpha production nor the one obtained after stimulation with monoclonal antibodies anti-CD3 and anti-CD28”, the “Effect on TNF-alpha production in LPS-stimulated PBMC” value (TNF-alpha; 10^−6 M, p<0.05, FIG. 4) was “significantly inhibited” and the “Effect on CD62L shedding in lymphocytes” value (CD62L in lymphocytes) was “increases significantly”. The “Effect on IL-8 production by PBMC, spontaneous or anti-CD3 and anti-CD28 induced” value (IL-8 [1]) was “neither modified the spontaneous IL-8 production nor that induced by the combination of monoclonal antibodies anti-CD3 and anti-CD28”, the “Effect on LPS-induced production of IL-8 in PBMC” value (IL-8 [1]; 10^−6 M and 10^−8 M, FIG. 8) was “significantly inhibited” and the “Effect on IL-8 production under LPS stimulation of PBMC” value (IL-8 [2]) was “no effects were observed”. For the same molecule, the “Effect on spontaneous production of IL-8 by PBMC” value (IL-8 [2]; 10^−6 M and 10^−7 M, p<0.05, FIG. 7) was “significantly inhibited” and the “Effect on IL-8 production induced by anti-CD3 and anti-CD28” value (IL-8 [2]; 10^−8 M) was “significant inhibition”.

From patent US7781594B2, “5-(4-methanesulfonyl-phenyl)-thiazole derivatives for the treatment of acute and chronic inflammatory diseases” (Faes Farma, S.A., priority 2008, dated 2010)
